Results taken from patent US9850183B2, “Conjugates derived from non-steroidal anti-inflammatory drugs and methods of use thereof in imaging” (Reiley Pharmaceuticals, Inc., priority 2014, dated 2017).
Where two headings read alike, the source gives them in different places.

What was measured:
human COX-2 = target: T1, human COX-2 (Homo sapiens, UniProt P35354); assay: COX-2 enzyme assay (EIA kit, PGF2α readout); assay type: biochemical
T1 construct: purchased Cayman Chemical Co., Ann Arbor, Mich., USA 701080
T1 sequence (P35354 18-604): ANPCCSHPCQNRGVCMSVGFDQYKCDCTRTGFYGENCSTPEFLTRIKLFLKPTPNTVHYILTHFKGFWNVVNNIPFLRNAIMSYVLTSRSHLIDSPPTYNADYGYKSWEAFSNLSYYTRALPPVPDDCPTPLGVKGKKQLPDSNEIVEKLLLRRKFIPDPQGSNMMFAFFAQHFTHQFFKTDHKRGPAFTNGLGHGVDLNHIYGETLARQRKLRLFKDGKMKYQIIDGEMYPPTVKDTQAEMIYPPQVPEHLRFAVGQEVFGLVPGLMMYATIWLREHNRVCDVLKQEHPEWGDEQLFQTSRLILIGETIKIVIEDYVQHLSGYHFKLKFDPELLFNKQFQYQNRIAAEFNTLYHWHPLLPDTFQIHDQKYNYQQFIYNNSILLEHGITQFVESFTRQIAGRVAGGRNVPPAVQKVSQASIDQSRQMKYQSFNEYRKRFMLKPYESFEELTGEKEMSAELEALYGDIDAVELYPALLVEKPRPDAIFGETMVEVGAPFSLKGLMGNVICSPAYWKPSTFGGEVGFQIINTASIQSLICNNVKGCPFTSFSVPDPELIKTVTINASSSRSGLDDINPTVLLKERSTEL
Method: (§1) The ability of compounds to inhibit ovine COX-1 and human COX-2 was determined using a commercially available enzyme immunoassay (EIA) kit (catalog no. 701090 (COX-1); 701080 (COX-2) Cayman Chemical Co., Ann Arbor, Mich., USA) according to the manufacturer's protocol. COX catalyzes the first step in the biosynthesis of AA to PGH2. PGF2α, produced from PGH2 by reduction with stannous chloride, was measured by EIA (ACE™ competitive EIA, Cayman Chemical, Ann Arbor, Mich., USA). Briefly, to a series of supplied reaction buffer solutions [960 μl 0.1 M Tris-HCl (pH 8.0) containing 5 mM EDTA and 2 mM phenol] with either COX-1 or COX-2 (10 μl) enzyme in the presence of heme (10 μl), 10 μl of various concentrations of test drug solutions were added. These solutions were incubated for 15 min at 37° C. and subsequently 10 μl AA solution (100 μM) was added. The COX reaction was stopped by the addition of 30 μl stannus chloride after 2 min, mixed immediately, supernatants were 2000 fold diluted. The produced PGF2α was measured by EIA. This assay is based on the competition between PGs and a PG-acetylcholinesterase conjugate (PG tracer) for a limited amount of PG antiserum. The amount of PG tracer that is able to bind to the PG antiserum is inversely proportional to the concentration of PGs in the wells since the concentration of the PG tracer is held at a constant while the concentration of PGs varies. The specific antiserum-PG complex bound to a mouse anti-rabbit IgG that had been previously attached to the well. The plate was washed to remove any unbound reagents and 200 μl Ellman's reagent (5,5′-dithiobis-(2-nitrobenzoic acid), which contains the substrate to acetylcholine esterase, was added to the well. The product of this enzymatic reaction generates a distinct yellow color that absorbs at 406 nm. The intensity of this color, determined by spectrophotometry, is proportional to the amount of PG tracer bound to the well, which is inversely proportional to the amount of PGs present in the well during the incubation. Percent inhibition was calculated by the comparison of the compounds treated to the various control incubations.
(§2) Dose-response curves were generated using XLFit (IDBS, Surrey, UK) or Prism (GraphPad Software, La Jolla, Calif., US) to calculate IC50 values for each compound tested.

COX-2 = target: T2, COX-2 (Mus musculus, UniProt Q05769); assay: Cell-based COX-2 assay (PGE2 in LPS/IFN-g stimulated RAW264.7 cells); conditions: RAW264.7 murine macrophages, 1 μg/ml LPS and 10 U/ml IFN-g for 7 h, PGE2 readout
T2 construct: endogenous in cells; host or cells: RAW264.7 murine macrophages, stimulated with LPS and IFN-g
T2 sequence (Q05769 18-604): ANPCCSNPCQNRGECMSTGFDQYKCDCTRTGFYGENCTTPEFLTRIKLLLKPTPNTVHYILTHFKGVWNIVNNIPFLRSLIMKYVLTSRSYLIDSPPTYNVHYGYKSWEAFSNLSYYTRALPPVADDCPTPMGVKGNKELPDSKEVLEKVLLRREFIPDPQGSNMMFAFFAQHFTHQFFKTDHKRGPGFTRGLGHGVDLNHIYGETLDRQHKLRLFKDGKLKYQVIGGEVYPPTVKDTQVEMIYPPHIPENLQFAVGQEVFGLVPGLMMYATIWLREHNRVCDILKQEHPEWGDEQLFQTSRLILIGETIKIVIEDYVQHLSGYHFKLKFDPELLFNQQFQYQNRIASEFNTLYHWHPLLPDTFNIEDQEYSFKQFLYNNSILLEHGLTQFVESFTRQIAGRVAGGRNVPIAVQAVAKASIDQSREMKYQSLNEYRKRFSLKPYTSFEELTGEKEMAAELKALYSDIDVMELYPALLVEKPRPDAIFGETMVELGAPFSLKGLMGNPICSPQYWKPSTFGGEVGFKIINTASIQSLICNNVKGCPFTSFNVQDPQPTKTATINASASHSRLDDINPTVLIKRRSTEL
Method: RAW264.7 murine macrophages were obtained from the Cell Bank of Shanghai Institute of Biochemistry and Cell Biology, Chinese Academy of Sciences (Shanghai, China) and cultured in Dulbecco's modified Eagle's medium containing 100 U/ml penicillin and 100 μg/ml streptomycin at 37° C. in 5% CO2.
RAW264.7 cells were plated at a density of 2.5×10^5/ml cells in a 96-well plate with 0.1 ml of culture medium per well and cultured overnight. The cells were pre-incubated for 30 min with various doses of compounds and stimulated for 7 h with 1 μg/ml LPS and 10 U/ml IFN-g. The cell culture supernatants were collected immediately following treatment and centrifuged at 1,000 rpm for 5 min to remove the particulate matter. PGE2 was determined using a Prostaglandin E2 assay kit (catalog no. 62P2APEB; Cisbio Co.,). 10 μL of cell supernatant was transferred to a 384-well low volume plate (e.g. Corning® 3544), 5 μL of PGE2-d2 was added, followed by 5 μL anti-PGE2 Cryptate as a negative control. Replace the standard by 10 μL of diluent and PGE2-d2 by 5 μL of reconstitution buffer, Cal0 (for positive control), replace the standard by 10 μL of diluent. Incubate at 4° C. overnight. After centrifuging at 1,000 rpm for 1 min, the dual fluorescence emissions of 615 and 665 nm with a 320 nm excitation were measured using an Envision plate reader (Perkin Elmer, Shelton, Conn.). The results are expressed as the ratio of 665 nm/615 nm emissions.
as §2

ovine COX-1 = target: T3, ovine COX-1 (Ovis aries, UniProt P05979); assay: biochemical
T3 sequence (P05979 25-600): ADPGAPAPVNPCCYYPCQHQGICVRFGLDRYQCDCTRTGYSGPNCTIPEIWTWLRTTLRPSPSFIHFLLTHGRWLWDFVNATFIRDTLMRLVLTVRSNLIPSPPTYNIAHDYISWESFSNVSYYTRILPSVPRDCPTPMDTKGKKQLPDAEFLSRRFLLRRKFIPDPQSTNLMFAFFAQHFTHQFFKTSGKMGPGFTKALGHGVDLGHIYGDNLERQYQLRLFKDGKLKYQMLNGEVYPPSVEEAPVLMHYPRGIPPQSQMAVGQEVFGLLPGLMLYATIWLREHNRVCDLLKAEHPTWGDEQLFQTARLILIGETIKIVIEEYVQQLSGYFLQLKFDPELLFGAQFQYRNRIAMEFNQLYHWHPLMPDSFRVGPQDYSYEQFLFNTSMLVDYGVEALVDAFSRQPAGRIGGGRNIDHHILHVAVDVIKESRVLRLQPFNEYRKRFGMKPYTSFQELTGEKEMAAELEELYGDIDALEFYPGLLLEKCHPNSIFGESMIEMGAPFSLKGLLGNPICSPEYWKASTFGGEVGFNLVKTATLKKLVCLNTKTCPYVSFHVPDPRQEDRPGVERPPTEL
Method: as §1, §2

[1] = human COX-2 enzyme, EIA, 15 min pre-incubation at 37° C., read-out: COX-2 IC50 (μM) enzyme
[2] = ovine COX-1 enzyme, EIA, read-out: COX-1 IC50 (μm) enzyme

Structure (SMILES) | IC50 (human COX-2; [1]) [µM] | IC50 (COX-2) [µM] | IC50 (ovine COX-1; [2]) [nM] | IC50 (human COX-2) [µM] | IC50 (ovine COX-1) [nM]
COc1ccc2c(c1)c(CC(=O)NCCCCCC[N+]13CC[S][Re-]14(=[O])[S]CC[N]4CC3)c(C)n2C(=O)c1ccc(Cl)cc1 (stereo not drawn) [Compound 275] | 0.7 | 0.2 | > 30000 |  | 
COc1ccc2c(c1)c(CC(=O)NCCCCCCCNC(=O)[c-]1cccc1)c(C)n2C(=O)c1ccc(Cl)cc1.[C-]#[O+].[C-]#[O+].[C-]#[O+].[Re+] [Compound 246] | 0.1 | 0.2 | > 30000 |  | 
COc1ccc2c(c1)c(CC(=O)NCCCCCC[N+]13CC[S][Re-]14(=[O])[S]CC[N]4C(=O)C3)c(C)n2C(=O)c1ccc(Cl)cc1 (stereo not drawn) [Compound 260] | 0.3 | 0.2 | > 30000 |  | 
COc1ccc2c(c1)c(CC(=O)NCCCOCCC[N+]13CC[S][Re-]14(=[O])[S]CC[N]4CC3)c(C)n2C(=O)c1ccc(Cl)cc1 (stereo not drawn) [Compound 306] | 0.7 | 0.2 | > 30000 |  | 
COc1ccc2c(c1)c(CC(=O)NCCCCCCC[N+]13CC[S][Re-]14(=[O])[S]CC[N]4CC3)c(C)n2C(=O)c1ccc(Cl)cc1 (stereo not drawn) [Compound 305] |  | 0.1 |  | 0.3 | > 30000
COc1ccc2c(c1)c(CC(=O)NCCCCCCNC(=O)[c-]1cccc1)c(C)n2C(=O)c1ccc(Cl)cc1.[C-]#[O+].[C-]#[O+].[C-]#[O+].[Re+] [Compound 242] | 0.3 | 0.4 | > 30000 |  | 
